Assay results from PubChem BioAssay (NCI).
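Abbreviation: GI50, concentration required for 50% inhibition of growth. TGI: total growth inhibition.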

Tests used:
Test in all cases: inhibition of tumour cell growth, NCI panel, 384-well format
HCC-2998 colon = test system: HCC-2998 colon
NCI/ADR-RES ovarian = test system: NCI/ADR-RES ovarian
SK-MEL-2 melanoma = test system: SK-MEL-2 melanoma
A549 NSCLC = test system: A549 NSCLC
CCRF-CEM leukemia = test system: CCRF-CEM leukemia
NCI-H522 lung = test system: NCI-H522 lung
NCI-H23 lung = test system: NCI-H23 lung
TK-10 renal = test system: TK-10 renal
HT29 colon = test system: HT29 colon
A498 renal = test system: A498 renal
SF-539 CNS = test system: SF-539 CNS
MDA-MB-435 melanoma = test system: MDA-MB-435 melanoma
786-0 renal = test system: 786-0 renal
SK-MEL-28 melanoma = test system: SK-MEL-28 melanoma
SN12C renal = test system: SN12C renal
MDA-MB-468 breast = test system: MDA-MB-468 breast
NCI-H460 NSCLC = test system: NCI-H460 NSCLC
SF-268 CNS = test system: SF-268 CNS
OVCAR-3 ovarian = test system: OVCAR-3 ovarian
SK-MEL-5 melanoma = test system: SK-MEL-5 melanoma
HOP-62 NSCLC = test system: HOP-62 NSCLC
NCI-H226 lung = test system: NCI-H226 lung
K-562 leukemia = test system: K-562 leukemia
DU-145 prostate = test system: DU-145 prostate
BT-549 breast = test system: BT-549 breast
EKVX NSCLC = test system: EKVX NSCLC
HL-60(TB) leukemia = test system: HL-60(TB) leukemia
SF-295 CNS = test system: SF-295 CNS
SR leukemia = test system: SR leukemia
HCT-116 colon = test system: HCT-116 colon

`CC(C)Oc1ccc(C(=O)N[C@H](CNC(=O)CN(C)C)Cc2ccc(-c3cn4cccc([C@H](C)O)c4n3)cc2)cc1Cl` was tested, and the GI50 (HCC-2998 colon) was less than 17.9 nM, the GI50 (NCI/ADR-RES ovarian) was 1410 nM and the TGI (NCI/ADR-RES ovarian) was 4670 nM. It also gave a GI50 (SK-MEL-2 melanoma) of less than 10 nM, a TGI (SK-MEL-2 melanoma) of less than 13 nM and a GI50 (A549 NSCLC) of less than 20.7 nM. It also gave a TGI (A549 NSCLC) of 14500 nM, a GI50 (CCRF-CEM leukemia) of 17.2 nM and a TGI (CCRF-CEM leukemia) of 33.5 nM. The GI50 (NCI-H522 lung) was less than 10 nM, the TGI (NCI-H522 lung) was less than 10 nM and the GI50 (NCI-H23 lung) was less than 14.5 nM. For the same compound, the TGI (NCI-H23 lung) was less than 21.8 nM, the GI50 (TK-10 renal) was less than 26.7 nM and the TGI (TK-10 renal) was 14700 nM. For the same compound, the GI50 (HT29 colon) was less than 12.2 nM, the TGI (HT29 colon) was less than 21.4 nM and the GI50 (A498 renal) was less than 22.9 nM. For the same compound, the TGI (A498 renal) was 11400 nM, the GI50 (SF-539 CNS) was less than 15.9 nM and the TGI (SF-539 CNS) was less than 34 nM. The GI50 (MDA-MB-435 melanoma) was less than 14.2 nM, the TGI (MDA-MB-435 melanoma) was less than 22.8 nM and the GI50 ([…]-0 renal) was less than 17.8 nM. For the same compound, the TGI (786-0 renal) was 4560 nM, the GI50 (SK-MEL-28 melanoma) was 270 nM and the TGI (SK-MEL-28 melanoma) was 8220 nM. For the same compound, the GI50 (SN12C renal) was less than 20 nM, the TGI (SN12C renal) was 14200 nM and the GI50 (MDA-MB-468 breast) was less than 10 nM. It also gave a TGI (MDA-MB-468 breast) of less than 10 nM, a GI50 (NCI-H460 NSCLC) of less than 14.7 nM and a TGI (NCI-H460 NSCLC) of less than 21.4 nM. The GI50 (SF-268 CNS) was less than 17.9 nM, the TGI (SF-268 CNS) was 13200 nM and the GI50 (OVCAR-3 ovarian) was less than 10 nM. For the same compound, the TGI (OVCAR-3 ovarian) was less than 10 nM, the GI50 (SK-MEL-5 melanoma) was less than 21.1 nM and the GI50 (HOP-62 NSCLC) was less than 18.1 nM. For the same compound, the TGI (HOP-62 NSCLC) was 14700 nM, the GI50 (NCI-H226 lung) was 343 nM and the TGI (NCI-H226 lung) was 14500 nM. For the same compound, the GI50 (K-562 leukemia) was less than 12.8 nM, the TGI (K-562 leukemia) was less than 22.1 nM and the GI50 (DU-145 prostate) was less than 17.4 nM. For the same compound, the TGI (DU-145 prostate) was less than 28.9 nM, the GI50 (BT-549 breast) was less than 21.2 nM and the GI50 (EKVX NSCLC) was 27.9 nM. The TGI (EKVX NSCLC) was 240 nM, the GI50 (HL-60(TB) leukemia) was less than 14.2 nM and the TGI (HL-60(TB) leukemia) was less than 18.9 nM. The GI50 (SF-295 CNS) was less than 10 nM, the TGI (SF-295 CNS) was less than 10 nM and the GI50 (SR leukemia) was less than 12.1 nM. It also gave a TGI (SR leukemia) of less than 17.1 nM and a GI50 (HCT-116 colon) of less than 17.2 nM.
